Assay results from ChEMBL document CHEMBL1157709, “Enhancement of EGFR tyrosine kinase inhibition by C-C multiple bonds-containing anilinoquinazolines” (Bioorg Med Chem, 2010).
Each block holds one compound with its values, some of them ahead of it. Activity calls are given as the source filed them. The rule behind the calls is not given here.

Legend:
[1] = biological target: T1, Epidermal growth factor receptor (Homo sapiens, UniProt P00533); assay: Inhibition of recombinant EGFR by ELISA
[2] = biological target: T1, Epidermal growth factor receptor; assay: Reversible inhibitory activity of EGF-induced EGFR phosphorylation in human A431 cells at 10 to 100 nM by immunoblot analysis; settings: A-431
A-431 [3] = assay: Cell cycle arrest in human A431 cells by accumulation at G2/M phase at 1 uM after 24 hrs by propidium iodide staining-based flow cytometry (reference value: 11.1+/-3.1%); format: functional
A-431 [4] = assay: Cell cycle arrest in human A431 cells by accumulation at G1 phase at 3 uM after 24 hrs by propidium iodide staining-based flow cytometry (reference value: 39.8+/-0.2%); format: functional
A-431 [5] = assay: cells; format: functional; settings: Homo sapiens, A-431, 72 h
Description: Growth inhibition of human A431 cells after 72 hrs by MTT assay

A-431 [6] = assay: Induction of apoptosis in human A431 cells assessed as late apoptotic/necrotic cells level at 3 uM after 12 hrs by annexin V/propidium iodide staining-based flow cytometry (Rvb=0.6+/-0.1%); format: functional
A-431 [7] = assay: Induction of apoptosis in human A431 cells assessed as pre-necrotic cells level at 3 uM after 12 hrs by annexin V/propidium iodide staining-based flow cytometry (Rvb=0.9+/-0.1%); format: functional
A-431 [8] = assay: Cell cycle arrest in human A431 cells by accumulation at G2/M phase at 3 uM after 24 hrs by propidium iodide staining-based flow cytometry (reference value: 11.1+/-3.1%); format: functional
A-431 [9] = assay: Cell cycle arrest in human A431 cells by accumulation at S phase at 3 uM after 24 hrs by propidium iodide staining-based flow cytometry (reference value: 48.5+/-4.2%); format: functional
A-431 [10] = assay: Cell cycle arrest in human A431 cells by accumulation at S phase at 1 uM after 24 hrs by propidium iodide staining-based flow cytometry (reference value: 48.5+/-4.2%); format: functional
A-431 [11] = assay: Induction of apoptosis in human A431 cells assessed as viable cells level at 3 uM after 12 hrs by annexin V/propidium iodide staining-based flow cytometry (reference value: 95.4+/-0.5%); format: functional
A-431 [12] = assay: Induction of apoptosis in human A431 cells assessed as early apoptotic cells level at 3 uM after 12 hrs by annexin V/propidium iodide staining-based flow cytometry (Rvb=3.1+/-0.5%); format: functional
A-431 [13] = assay: Cell cycle arrest in human A431 cells by accumulation at G1 phase at 1 uM after 24 hrs by propidium iodide staining-based flow cytometry (reference value: 39.8+/-0.2%); format: functional

T1 sequence (P00533 whole entry): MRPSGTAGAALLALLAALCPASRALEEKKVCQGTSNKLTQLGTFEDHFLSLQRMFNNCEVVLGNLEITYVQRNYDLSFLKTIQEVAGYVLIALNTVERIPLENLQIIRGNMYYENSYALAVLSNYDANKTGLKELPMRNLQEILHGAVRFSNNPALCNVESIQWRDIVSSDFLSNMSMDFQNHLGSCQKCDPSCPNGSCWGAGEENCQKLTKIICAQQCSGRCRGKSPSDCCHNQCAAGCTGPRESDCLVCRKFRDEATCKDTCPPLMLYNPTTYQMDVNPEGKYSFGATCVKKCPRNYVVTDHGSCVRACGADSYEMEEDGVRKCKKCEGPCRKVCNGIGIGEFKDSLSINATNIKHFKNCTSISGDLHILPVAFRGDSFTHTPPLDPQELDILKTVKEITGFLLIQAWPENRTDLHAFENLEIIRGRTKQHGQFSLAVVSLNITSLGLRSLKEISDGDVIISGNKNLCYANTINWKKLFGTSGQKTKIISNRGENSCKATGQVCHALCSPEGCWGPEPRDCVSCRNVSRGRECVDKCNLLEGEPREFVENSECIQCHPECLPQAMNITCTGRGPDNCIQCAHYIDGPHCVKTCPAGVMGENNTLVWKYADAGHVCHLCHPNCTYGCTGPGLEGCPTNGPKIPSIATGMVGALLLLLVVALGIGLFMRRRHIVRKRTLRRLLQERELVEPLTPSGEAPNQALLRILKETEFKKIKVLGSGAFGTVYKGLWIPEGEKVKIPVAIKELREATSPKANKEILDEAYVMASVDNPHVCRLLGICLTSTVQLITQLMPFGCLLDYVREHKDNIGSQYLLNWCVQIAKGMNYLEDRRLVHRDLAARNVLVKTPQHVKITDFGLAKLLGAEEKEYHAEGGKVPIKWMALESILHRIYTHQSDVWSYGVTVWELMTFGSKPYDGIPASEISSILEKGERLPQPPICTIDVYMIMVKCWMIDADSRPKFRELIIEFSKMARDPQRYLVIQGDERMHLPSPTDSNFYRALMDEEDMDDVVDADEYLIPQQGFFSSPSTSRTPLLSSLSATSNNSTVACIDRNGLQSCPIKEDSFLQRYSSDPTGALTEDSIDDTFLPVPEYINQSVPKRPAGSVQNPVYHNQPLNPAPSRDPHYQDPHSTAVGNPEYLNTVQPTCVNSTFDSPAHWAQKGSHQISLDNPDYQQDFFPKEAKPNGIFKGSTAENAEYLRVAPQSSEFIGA

SMILES: C#CCCCCCOc1cc2c(Nc3ccc(F)c(Cl)c3)ncnc2cc1OC
IC50 [1]: 32.7 nM

SMILES: C#CCOc1cc2c(Nc3cccc(Cl)c3)ncnc2cc1OC
inhibition [2]: Active | IC50 [1]: 25.9 nM

SMILES: CCCCCCOc1cc2c(Nc3ccc(F)c(Cl)c3)ncnc2cc1OC
IC50 [1]: 106 nM

SMILES: C#Cc1cc2c(Nc3ccc(F)c(Cl)c3)ncnc2cc1OC
IC50 [1]: > 1000 nM

SMILES: C=CCCCCOc1cc2c(Nc3ccc(F)c(Cl)c3)ncnc2cc1OC
IC50 [1]: 32.6 nM

Compounds with a lower IC50 [1], results first:

inhibition [2]: Active | IC50 [1]: 14.8 nM
SMILES: C#CCOc1cc2c(Nc3ccc(F)c(Cl)c3)ncnc2cc1OC

IC50 [1]: 17.7 nM
SMILES: C#CCCCOc1cc2c(Nc3cccc(Cl)c3)ncnc2cc1OC

GI50 (A-431 [5]): 221 nM | IC50 [1]: 2.53 nM
SMILES: C#CCCCOc1cc2c(Nc3ccc(F)c(Cl)c3)ncnc2cc1OC
Activity (A-431 [3]): 11.7% | Activity (A-431 [4]): 65.3% | Activity (A-431 [6]): 4.2% | Activity (A-431 [7]): 1.1% | Activity (A-431 [8]): 12.5% | Activity (A-431 [9]): 22.1% | Activity (A-431 [10]): 34.7% | Activity (A-431 [11]): 81.2% | Activity (A-431 [12]): 13.5% | Activity (A-431 [13]): 53.5%
